What is called IC50 is the midpoint of a concentration-inhibition curve. A word on the EC50: it is the concentration that produces a half-maximal response. A high value points to weaker potency.

SMILES strings stand for the structures.

The source of these data is ChEMBL document CHEMBL1157124, “Synthesis and anticancer evaluation of alpha-lipoic acid derivatives” (Bioorg Med Chem Lett, 2010).

Assay [1] has as its system CCRF S-180. The assay can be described thus: Antitumor activity against mouse S180 cells xenografted in ICR mouse assessed as reduction of tumor weight at 200 mg/kg, ig administered 2 days after tumor inoculation qd for 7 days. The following applies: route intragastric. In kind it is functional.
The subject of assay [2] is CCRF S-180. The assay can be described thus: Antitumor activity against mouse S180 cells xenografted in ICR mouse assessed as reduction of tumor weight at 100 mg/kg, ig administered 2 days after tumor inoculation qd for 7 days. The class given is functional. The following applies: route intragastric.
Assay [3] has as its system NCI-H460. The assay can be described thus: Cytotoxicity against human NCI-H460 cells assessed as growth inhibition at 10 ug/ml after 24 hrs by MTT assay. In kind it is functional. The following applies: NCI-H460, 24 h, read-out: GI. A general note: Tetrazolium assays rely on reduction of a dye to a coloured formazan, in cell work by metabolically active cells.
The subject of assay [4] is PC-3. The assay can be described thus: Cytotoxicity against human PC3 cells assessed as growth inhibition at 100 ug/ml after 24 hrs by MTT assay. In kind it is functional. The following applies: PC-3, 24 h, read-out: GI.
For assay [5], the system named is KB. The assay can be described thus: Cytotoxicity against human KB cells assessed as growth inhibition at 100 ug/ml after 24 hrs by MTT assay. The class given is functional. The following applies: read-out: GI.
Assay [6] has as its system PC-3. The experiment in a line: Cytotoxicity against human PC3 cells assessed as growth inhibition at 0.1 ug/ml after 24 hrs by MTT assay. The class given is functional. The following applies: PC-3, 24 h, read-out: GI.
The nature of assay [7]: Cytotoxicity against human HO8910 cells assessed as growth inhibition at 10 ug/ml after 24 hrs by MTT assay. The class given is functional. The settings on record: HO-8910, 24 h, read-out: GI.
The subject of assay [8] is Bel-7402. The assay can be described thus: Cytotoxicity against human Bel7402 cells assessed as growth inhibition at 100 ug/ml after 24 hrs by MTT assay. The class given is functional. The settings on record: Bel-7402, 24 h, read-out: GI.
In assay [9] the test system is NCI-H460. The experiment in a line: Cytotoxicity against human NCI-H460 cells assessed as growth inhibition at 0.1 ug/ml after 24 hrs by MTT assay. The class given is functional. The settings on record: NCI-H460, 24 h, read-out: GI.
For assay [10], the system named is Bel-7402. The assay can be described thus: Cytotoxicity against human Bel7402 cells assessed as growth inhibition at 10 ug/ml after 24 hrs by MTT assay. In kind it is functional. The settings on record: Bel-7402, 24 h, read-out: GI.
Assay [11] deals with PC-3. The experiment in a line: Cytotoxicity against human PC3 cells assessed as growth inhibition at 1 ug/ml after 24 hrs by MTT assay. In kind it is functional. The following applies: PC-3, 24 h, read-out: GI.
Assay [12] deals with NCI-H460. The assay can be described thus: Cytotoxicity against human NCI-H460 cells assessed as growth inhibition at 1 ug/ml after 24 hrs by MTT assay. The class given is functional. The settings on record: NCI-H460, 24 h, read-out: GI.
Assay [13] deals with Bel-7402. The experiment in a line: Cytotoxicity against human Bel7402 cells assessed as growth inhibition at 1 ug/ml after 24 hrs by MTT assay. In kind it is functional. The settings on record: Bel-7402, 24 h, read-out: GI.
Assay [14] can be described thus: Cytotoxicity against human HO8910 cells assessed as growth inhibition at 0.1 ug/ml after 24 hrs by MTT assay. In kind it is functional. The settings on record: HO-8910, 24 h, read-out: GI.
Assay [15] in a line: Cytotoxicity against human HO8910 cells assessed as growth inhibition at 1 ug/ml after 24 hrs by MTT assay. In kind it is functional. The following applies: HO-8910, 24 h, read-out: GI.
Assay [16] is described as follows: Cytotoxicity against human HO8910 cells assessed as growth inhibition at 100 ug/ml after 24 hrs by MTT assay. In kind it is functional. The following applies: HO-8910, 24 h, read-out: GI.
Assay [17] deals with KB. The experiment in a line: Cytotoxicity against human KB cells assessed as growth inhibition at 0.1 ug/ml after 24 hrs by MTT assay. The following applies: read-out: GI. The class given is functional.
Assay [18] relates to KB. The experiment in a line: Cytotoxicity against human KB cells assessed as growth inhibition at 1 ug/ml after 24 hrs by MTT assay. In kind it is functional. The settings on record: read-out: GI.
The subject of assay [19] is NCI-H460. The assay can be described thus: Cytotoxicity against human NCI-H460 cells assessed as growth inhibition at 100 ug/ml after 24 hrs by MTT assay. In kind it is functional. The settings on record: NCI-H460, 24 h, read-out: GI.
Assay [20] relates to KB. The assay can be described thus: Cytotoxicity against human KB cells assessed as growth inhibition at 10 ug/ml after 24 hrs by MTT assay. In kind it is functional. The following applies: read-out: GI.
Assay [21] relates to PC-3. The experiment in a line: Cytotoxicity against human PC3 cells assessed as growth inhibition at 10 ug/ml after 24 hrs by MTT assay. The following applies: PC-3, 24 h, read-out: GI. The class given is functional.
In another assay the test system is DU-145. The experiment in a line: Cytotoxicity against human DU145 cells. The class given is functional, cell-based.
The subject of another assay is HT-29. The experiment in a line: Induction of apoptosis in human HT-29 cells. The class given is functional, cell-based.
The subject of assay [22] is Bel-7402. The assay can be described thus: Cytotoxicity against human Bel7402 cells assessed as growth inhibition at 0.1 ug/ml after 24 hrs by MTT assay. In kind it is functional. The following applies: Bel-7402, 24 h, read-out: GI.

For the compound `O=C(CCCCCCC(=O)Nc1ccccc1)NO` [VORINOSTAT], the Activity is given as 1.53 g in the assay on CCRF S-180 [1] and 1.61 g in the assay on CCRF S-180 [2].
With `O=C(CCCCC1CCSS1)Nc1ccc(OC(F)(F)F)cc1` (stereo not given), the inhibition of growth at 10 µg/mL with NCI-H460 [3] amounted to 20.3%; in [7] it was 8.57%; with Bel-7402 [10], 1.24%; in the assay on KB [20], 8.49%; with PC-3 [21], 38.2%. The inhibition of growth at 100 µg/mL with PC-3 [4] was 88.5%; in the assay with KB [5], 90.1%; in the assay on Bel-7402 [8], 78.4%; in assay [16], 84.5%; in the assay with NCI-H460 [19], 83%. Besides, the inhibition of growth at 0.1 µg/mL in the assay on PC-3 [6] was 6.69%; in the assay on NCI-H460 [9], 7.05%; in assay [14] it was 5.53%; in the assay on KB [17], 1.97%. The inhibition of growth at 1 µg/mL worked out at 10.8% with PC-3 [11]; 12.2% in the assay on NCI-H460 [12]; 0.29% with Bel-7402 [13]; 10% in [15]; 1.54% with KB [18].
On to `O=C(CCCCC1CCSS1)Nc1cccc(C(F)(F)F)c1` (stereo not given), for which the inhibition of growth at 10 µg/mL in the assay with NCI-H460 [3] turned out to be 6.77%; in assay [7], 5.99%; with Bel-7402 [10], 4.43%; in the assay on KB [20], 10.9%; in the assay on PC-3 [21], 38.5%. Also, the inhibition of growth at 100 µg/mL amounted to 88.7% in the assay on PC-3 [4]; 80% in the assay on KB [5]; 61.9% in the assay on Bel-7402 [8]; 74.8% in assay [16]; 68.8% with NCI-H460 [19]. The figures for the inhibition of growth at 0.1 µg/mL (in the assay with PC-3 [6]; in assay [14]; with KB [17]) were 6.27%, 5% and 0.33%, respectively. For the same compound, the inhibition of growth at 1 µg/mL worked out at 8.44% in the assay with PC-3 [11], 4.39% with NCI-H460 [12], 4.76% in assay [15] and 9.5% in the assay on KB [18].
`CSCCCC(=O)SCCC(CCCCC(=O)OCCN(C)C)SC(=O)CCCSC` (stereo not given) registered an IC50 in the assay with DU-145 of 240 µM.
`O=C(O)CCCC[C@@H](S)CCS` [DIHYDROLIPOIC ACID]: the inhibition of growth at 10 µg/mL in the assay with NCI-H460 [3] worked out at 5.02%; in the assay with Bel-7402 [10], 5.59%; in the assay on KB [20] it was 3.38%. The inhibition of growth at 100 µg/mL in the assay with KB [5] was determined as 16.3%; in the assay with Bel-7402 [8], 0.59%; in [16], 1.17%; in the assay on NCI-H460 [19], 7.84%. A half-maximal effect in the assay on HT-29 (EC50) was put at 250 µM. Besides, the inhibition of growth at 0.1 µg/mL came out at 9.25% with NCI-H460 [9], 10.4% in the assay with Bel-7402 [22] and 12% in the assay with KB [17]. For the same compound, the inhibition of growth at 1 µg/mL in the assay on NCI-H460 [12] came to 12.2%; with Bel-7402 [13] it was 6.98%; in [15] it was 3.93%; in the assay on KB [18], 8.79%.
`COC(=O)CCCCC(CCSC(=O)CCCSC)SC(=O)CCCSC` (stereo not given) had a half-inhibitory concentration (IC50) in the assay on DU-145 of 400 µM.
